Source: article PMC5758648, “Anti-glioma Natural Products Downregulating Tumor Glycolytic Enzymes from Marine Actinomycete Streptomyces sp. ZZ406” (Scientific Reports, 2018)
“Also recorded” adds a separate entry of the source. Where a SMILES comes first, the peptide text is derived from it.

Tests used:
human glioma SHG44 cells = test: SRB antiproliferative assay, SHG44 glioma cells; format: cell-based; details: for Selectivity index (CC50/IC50), SHG44: CC50 in HA / IC50 in SHG44; for IC50: Homo sapiens, SHG-44, SRB assay, mean ± s.d., n = 3
Experimental: (§1) Doxorubicin (DOX, a chemotherapeutic drug) was used as a positive control.
(§2) Sulforhodamine B (SRB) assay as described in previous studies[19],[20] was used to determine the activity of tested compounds inhibiting the proliferation of glioma U87MG, U251, SHG44 cells, and normal human astrocytes (HA). Doxorubicin (DOX) was used as a positive control (CON).

[1] = test system: human glioma U87MG, U251 and SHG44 cells; test: SRB antiproliferative assay, results summarised over the glioma cell lines; format: cell-based; details: for IC50: Homo sapiens, Glioma cell, range over U87MG, read-out: IC50 values against different glioma cells (range); for Activity in inhibiting the proliferation of glioma cells: U87MG
Experimental: as §1, §2

[2] = Stability in human liver microsomes; format: in vitro ADME; details: 37 °C; for Percentage compared to the zero time point: human liver microsomes; as to Percentage compared to the zero time point: tested at 12.5 µg/mL
Experimental: Therefore, it is interesting to understand the stability of compound 1 in human liver microsomes. Human liver microsomes were incubated with compound 1 at 37 °C in a water bath and the concentration of 1 at designed time points of 0, 15, 30, 60, 90, 120, 180, 240, and 360 min was determined by HPLC analysis. The results (Table 2 and Fig. 6) indicated the concentration of 1 had no change after the incubation of 30 min. The percentage of 1 was 98.4% (30 min), 70.2% (60 min), 65.3% (90 min), 54.8% (120 min), 35.5% (180 min), 28.2 (240 min), and 19.4% (360 min) when compared to 100.0% (0 min). The data indicated 1 was very stable in human liver microsomes in the first 30 min incubation with concentration gradually decreasing after the incubation of 30 min.
Compound 1 was dissolved in 100 mM NaPO4 solution (pH 7.4) to make a sample solution with a final concentration of 125 μg/mL. Human liver microsomes were diluted by 100 mM NaPO4 solution (pH 7.4) to make liver microsomal solution with a concentration of 1.25 mg/mL. A mixture of the sample solution (90 μL) and the liver microsomal solution (720 μL) was mixed well and then pre-incubated at 37 °C for 7 min. The pre-incubated mixture was initiated by adding 90 μL 10 mM NADPH solution, mixed well, and then incubated at 37 °C in a water bath. At each designed time point of 0, 15, 30, 60, 90, 120, 180, 240 and 360 min, aliquot 80 μL of the incubated mixture was pipette by micropipet and then quenched by the addition of 320 μL methanol. The reaction mixture was centrifuged at 12000 rpm for 10 min at 5 °C to give the supernatant, which was submitted to HPLC analysis.

LDH5 = test: Western blot, LDH5 expression in U87MG cells; format: cell-based, human; details: 48 h, 1 at 30 μM, 2 at 60 μM, western blot vs blank control
Experimental: (§3) The active compounds 1 and 2 were further assayed for their effects on the expression levels of important tumor glycolytic enzymes (regulators) of HK2, PFKFB3, PKM2, and LDH5. […] Therefore, the effects of 1 and 2 on the expressions of these regulators in U87MG cells were evaluated. 2-Deoxyglucose (2-DG, a hexokinase inhibitor)[8], was used as a positive control. The U87MG cells were treated by 1 (30.0 μM), 2 (60.0 μM), or 2-DG (6.0 mM) for 48 h. Protein prepared from the compound-treated U87MG cells was subjected to western blot analysis. […] The full-length blots of Fig. 5 were provided as supplementary information (Fig. S61).
(§4) Figure 5 The expression levels of HK2, PFKFB3, PKM2, and LDH5 in glioma U87MG cells. U87-MG cells were treated with compounds 1 (30 μM), 2 (60 μM), or 2-DG (6.0 mM) for 48 h. Protein extracted from the compound-treated cells was subjected to western blot analysis.
(§5) Western blot analysis was used to detect the expression levels of tumor glycolytic regulators HK2, PFKFB3, PKM2, and LDH5. The detailed procedure, including protein sample preparation, determination of protein concentration, and western blot analysis, was described in the previous publication.

[3] = SRB cytotoxicity assay, normal human astrocytes; format: cell-based; details: normal human astrocytes (HA), mean ± s.d., n = 3
Experimental: as §1, §2

human glioma U87MG cells = test: SRB antiproliferative assay, U87MG glioma cells; format: cell-based; details: for Selectivity index (CC50/IC50), U87MG: CC50 in HA / IC50 in U87MG; for IC50: Homo sapiens, U-87 MG, SRB assay, mean ± s.d., n = 3
Experimental: as §1
The procedure of the preparation of crude extract for bioactive assay was described in the previous publication. The crude extract was made to a concentration of 1.0 mg/mL. Sulforhodamine B (SRB) assay was used to evaluate the activity of the crude extract against the proliferation of glioma U87MG cells.
as §2

human glioma U251 cells = test: SRB antiproliferative assay, U251 glioma cells; format: cell-based; details: for Selectivity index (CC50/IC50), U251: CC50 in HA / IC50 in U251; for IC50: Homo sapiens, U-251, SRB assay, mean ± s.d., n = 3
Experimental: as §1, §2

HK2 = test: Western blot, HK2 expression in U87MG cells; format: cell-based, human; details: 48 h, 1 at 30 μM, 2 at 60 μM, western blot vs blank control
Experimental: as §3, §4, §5

PFKFB3 = test: Western blot, PFKFB3 expression in U87MG cells; format: cell-based, human; details: 48 h, 1 at 30 μM, 2 at 60 μM, western blot vs blank control
Experimental: as §3, §4, §5

PKM2 = test: Western blot, PKM2 expression in U87MG cells; format: cell-based, human; details: 48 h, 1 at 30 μM, 2 at 60 μM, western blot vs blank control
Experimental: as §3, §4, §5

[4] = test system: human glioma U87MG, U251 and SHG44 cells; set-up: method as in PMID 28049552; details: cited from earlier work
glioma = test system: glioma; set-up: method as in PMID 20128807, PMID 15747063, PMID 29056497; details: cited from earlier work

O=C(O)c1cc(CO)c2c(c1)C(=O)c1cccc(O)c1C2=O [Compound 1, 1-hydroxymethyl-8-hydroxy-anthraquinone-3-carboxylic acid]
Selectivity index (CC50/IC50), SHG44 (human glioma SHG44 cells): > 12.3
IC50 (human glioma SHG44 cells): 8.1 ± 0.4 µM
IC50 [1]: 4.7 to 8.1 µM
Stability in human liver microsomes [2]: good stability
Concentration in human liver microsomes ([2]; 0 min): 12400 ng/mL
Concentration in human liver microsomes ([2]; 15 min): 12000 ng/mL
Concentration in human liver microsomes ([2]; 30 min): 12200 ng/mL
Concentration in human liver microsomes ([2]; 60 min): 8700 ng/mL
Concentration in human liver microsomes ([2]; 90 min): 8100 ng/mL
Concentration in human liver microsomes ([2]; 120 min): 6800 ng/mL
Concentration in human liver microsomes ([2]; 180 min): 4400 ng/mL
Concentration in human liver microsomes ([2]; 240 min): 3500 ng/mL
Concentration in human liver microsomes ([2]; 360 min): 2400 ng/mL
Stability in human liver microsomes, first 30 min ([2]; first 30 min incubation): very stable
Percentage compared to the zero time point ([2]; 0 min): 100.0%
Percentage compared to the zero time point ([2]; 15 min): 96.8%
Percentage compared to the zero time point ([2]; 30 min): 98.4%
Percentage compared to the zero time point ([2]; 60 min): 70.2%
Percentage compared to the zero time point ([2]; 90 min): 65.3%
Percentage compared to the zero time point ([2]; 120 min): 54.8%
Percentage compared to the zero time point ([2]; 180 min): 35.5%
Percentage compared to the zero time point ([2]; 240 min): 28.2%
Percentage compared to the zero time point ([2]; 360 min): 19.4%
Expression level of LDH5 (LDH5): clearly reduced; also recorded: remarkably reduced
CC50 [3]: > 100 µM
Selectivity index (CC50/IC50), U87MG (human glioma U87MG cells): > 21.3
IC50 (human glioma U87MG cells): 4.7 ± 0.2 µM
Selectivity index (CC50/IC50), U251 (human glioma U251 cells): > 17.5
IC50 (human glioma U251 cells): 5.7 ± 0.3 µM
Expression level of HK2 (HK2): clearly reduced; also recorded: remarkably reduced
Expression level of PFKFB3 (PFKFB3): clearly reduced; also recorded: remarkably reduced
Expression level of PKM2 (PKM2): clearly reduced; also recorded: remarkably reduced

Cc1cc(=O)c2c(CC(=O)C[C@@H](O)CC(=O)O)cccc2o1 [Compound 2, 5-(2′-oxo-4′R-hydroxy-hexanoic acid)-2-methyl-chromone]
Selectivity index (CC50/IC50), SHG44 (human glioma SHG44 cells): > 3.8
IC50 (human glioma SHG44 cells): 25.8 ± 3.1 µM
IC50 [1]: 21.6 to 25.8 µM
Expression level of LDH5 (LDH5): clearly reduced; also recorded: remarkably reduced
CC50 [3]: > 100 µM
Selectivity index (CC50/IC50), U87MG (human glioma U87MG cells): > 3.8
IC50 (human glioma U87MG cells): 25.7 ± 2.4 µM
Selectivity index (CC50/IC50), U251 (human glioma U251 cells): > 4.6
IC50 (human glioma U251 cells): 21.6 ± 1.7 µM
Expression level of HK2 (HK2): clearly reduced; also recorded: remarkably reduced
Expression level of PFKFB3 (PFKFB3): clearly reduced; also recorded: remarkably reduced
Expression level of PKM2 (PKM2): clearly reduced; also recorded: remarkably reduced

CC(=O)N[C@@H](CC(C)C)C(=O)N[C@@H](CO)C(=O)N[C@@H](C)C(=O)O [Compound 3, N-acetyl-L-leucine-L-serine-L-alanine] (Ac-Leu-Ser-Ala-OH)
Activity in inhibiting the proliferation of glioma cells [1]: inactive

CC(=O)N1CC(C(=O)O)CN1C(=O)C(C)C (stereo not drawn) [Compound 4, 1-acetyl-2-isobutyrylpyrazolidine-4-carboxylic acid]
Activity in inhibiting the proliferation of glioma cells [1]: inactive

Cc1cc(O)c2c(c1)C(=O)c1cccc(O)c1C2=O [Compound 5, chrysophanol]
IC50 (human glioma SHG44 cells): 3 ± 0.2 µM
IC50 [1]: 0.5 to 3 µM
IC50 (human glioma U87MG cells): 0.5 ± 0.1 µM
IC50 (human glioma U251 cells): 1.2 ± 0.1 µM

Cc1c(C(=O)O)c(O)cc2c1C(=O)c1c(O)cccc1C2=O [Compound 6, 3,8-dihydroxy-1-methyl-anthraquinone-2-carboxylic acid]
IC50 (human glioma SHG44 cells): 36.3 ± 0.2 µM
IC50 [1]: 10.4 to 36.3 µM
IC50 (human glioma U87MG cells): 10.4 ± 0.5 µM
IC50 (human glioma U251 cells): 13 ± 0.6 µM

CC(C)[C@@H]1NC(=O)[C@H](C)OC(=O)[C@@H](C(C)C)NC(=O)[C@@H](C(C)C)OC(=O)[C@H](C(C)C)NC(=O)[C@H](C)OC(=O)[C@@H](C(C)C)NC(=O)[C@@H](C(C)C)OC(=O)[C@H](C(C)C)NC(=O)[C@H](C)OC(=O)[C@@H](C(C)C)NC(=O)[C@@H](C(C)C)OC1=O [Compound 11, valinomycin]
Activity in inhibiting the proliferation of different glioma cells [4]: showed activity

COc1cccc2c1C(=O)c1c(O)c3c(c(O)c1C2=O)C[C@@](O)(C(=O)CO)C[C@@H]3O[C@H]1C[C@H](N)[C@H](O)[C@H](C)O1 [DOX, Doxorubicin, reference compound]
Selectivity index (CC50/IC50), SHG44 (human glioma SHG44 cells): 3.5
IC50 (human glioma SHG44 cells): 2.5 ± 1.1 µM
IC50 [1]: 1.9 to 9.6 µM
CC50 [3]: 8.7 ± 1.2 µM
Selectivity index (CC50/IC50), U87MG (human glioma U87MG cells): 4.6
IC50 (human glioma U87MG cells): 1.9 ± 0.4 µM
Selectivity index (CC50/IC50), U251 (human glioma U251 cells): 0.9
IC50 (human glioma U251 cells): 9.6 ± 1.3 µM

O=C1c2cccc(O)c2C(=O)c2c(O)cc(CO)cc21 [aloe emodin]
Activity against glioma (glioma): reported to have activity against glioma

O=C(O)c1cc(O)c2c(c1)C(=O)c1cccc(O)c1C2=O [rhein]
Activity against glioma (glioma): reported to have activity against glioma

SZ-685C
Activity against glioma (glioma): reported to have activity against glioma
